Reference: patent US20260083843A1, “IMMUNE CELLS TARGETING EPCAM AND MEDICAL USE THEREOF” (SUZHOU IMMUNOFOCO BIOTECHNOLOGY CO., LTD, priority 2022, published 2026)

Test system: MKN-45-luc
Test: Abdominal cavity metastasis model of gastric cancer
Assay type: in vivo, NCG mice
Conditions: single dose of 1.5 mg/kg i.p., Day 0; FIG. 3
Protocol: To study whether EpCAM-CAR-T (the amino acid sequence of the chimeric antigen receptor of EpCAM-CAR-T is set forth in SEQ ID NO: 16) can clear abdominal metastatic tumors of gastric cancer and whether the chemotherapeutic drug docetaxel can enhance the efficacy of CAR-T, we constructed an abdominal cavity metastasis model of gastric cancer based on a gastric cancer cell line MKN-45-luc. Modeling: human gastric cancer cells MKN-45-luc were cultured in an RPMI-1640 culture medium with 10% FBS in an incubator at 37° C. with 5% CO2. Before continuous cell culturing for ten generations, the cells were inoculated into the abdominal cavity of mice, about 1.5×10^6 MKN-45-luc cells were resuspended in PBS, and inoculated into NCG mice by intraperitoneal injection in a volume of […]. Grouping and administration: 7 days after the inoculation, the growth of tumor cells in the abdominal cavity was detected using a small animal in vivo imaging fluorometer. The mice were randomly grouped according to the body weight and tumor size (fluorescence intensity), with 5 animals in each group, for a total of 6 groups. The day of grouping was defined as day 0.

CC(=O)O[C@@]12CO[C@@H]1C[C@H](O)[C@@]1(C)C(=O)[C@H](O)C3=C(C)[C@@H](OC(=O)[C@H](O)[C@@H](NC(=O)OC(C)(C)C)c4ccccc4)C[C@@](O)([C@@H](OC(=O)c4ccccc4)[C@H]21)C3(C)C [docetaxel]
efficacy: did not produce significant efficacy
